Data: patent US20240158355A1, “BET SUBFAMILY INHIBITORS AND METHODS USING SAME” (Baylor College of Medicine, priority 2021, published 2024)

Key:
BRDT-BD2 = BRDT-BD2 (Homo sapiens (Human), UniProt Q58F21); test: AlphaScreen bromodomain proximity assay (competition with biotinylated (+)-JQ1), BRDT-BD2; format: binding
His-BRDT-BD2 = His-BRDT-BD2 (Homo sapiens (Human), UniProt Q58F21); conditions: 0 = theoretically present in the library but not detected in the sequencing data
BRDT-BD1 = BRDT-BD1 (Homo sapiens (Human), UniProt Q58F21); test: AlphaScreen bromodomain proximity assay (competition with biotinylated (+)-JQ1), BRDT-BD1; format: binding; conditions: NE: no effect at 10 μM
[1] = Metabolic stability assay in mouse liver microsomes; format: in vitro ADME; conditions: in words
Description: Compounds 3-10, 15, 17, and 20-22 (2.0 μM) were incubated in the mouse or human liver microsomes (0.5 mg protein/mL) at 37° C. […] The reaction mixtures were centrifuged at rcf 15,000 for 15 min. […] The column temperature was maintained at 40° C. […] Q Exactive MS was operated in positive or negative mode with electrospray ionization.

Compound	IC50 (BRDT-BD2) [µM]	Count (observed molecule count in the DEC-Tec screen against BRDT-BD2) (His-BRDT-BD2)	IC50 (BRDT-BD1) [µM]	mouse microsomal stability [1]
CNC(=O)c1ccc(C(=O)Nc2cc(NC(=O)c3ccc4c(c3)c(-c3cc5ccccc5n3C)nn4C)ccc2C)cc1 [compound 8, N^1-Methyl-N^4-(2-methyl-5-(1-methyl-3-(1-methyl-1H-indol-2-yl)-1H-indazole-5-carboxamido)phenyl)terephthalamide]	0.013	846	> 10	–
CNC(=O)c1ccc(C(=O)Nc2cc(NC(=O)c3ccc4c(c3)c(-c3ccc(OC)cc3)nn4C)ccc2C)cc1 [compound 11]	0.521	–	> 10	–
CNC(=O)c1ccc(C(=O)Nc2cc(NC(=O)c3ccc4c(c3)c(-c3ccncc3)nn4C)ccc2C)cc1 [compound 12, N^1-Methyl-N^4-(2-methyl-5-(1-methyl-3-(pyridin-4-yl)-1H-indazole-5-carboxamido)phenyl)terephthalamide]	0.978	0	> 10	–
CNC(=O)c1ccc(C(=O)Nc2cc(NC(=O)c3ccc4c(c3)c(-c3cnc(N)nc3)nn4C)ccc2C)cc1 [compound 13, N^1-(5-(3-(2-Aminopyrimidin-5-yl)-1-methyl-1H-indazole-5-carboxamido)-2-methylphenyl)-N^4-methylterephthalamide]	0.139	–	> 10	–
CNC(=O)c1ccc(C(=O)Nc2cc(NC(=O)c3ccc4c(c3)c(-c3cnc(N)cc3C)nn4C)ccc2C)cc1 [compound 15]	0.022	–	–	high mouse microsomal stability
CC(=O)Nc1cc(NC(=O)c2ccc3c(c2)c(-c2ccc(N)nc2)nn3C)ccc1C [compound 17, N-(3-Acetamido-4-methylphenyl)-3-(6-aminopyridin-3-yl)-1-methyl-1H-indazole-5-carboxamide]	0.047	–	> 10	high mouse microsomal stability
CCn1nc(-c2ccc(N)nc2)c2cc(C(=O)Nc3ccc(C)c(NC(C)=O)c3)ccc21 [compound 18, N-(3-Acetamido-4-methylphenyl)-3-(6-aminopyridin-3-yl)-1-ethyl-1H-indazole-5-carboxamide]	0.079	–	> 10	–
CC(=O)Nc1cc(NC(=O)c2ccc3c(c2)c(-c2ccc(N)nc2)nn3C(C)C)ccc1C [compound 19, N-(3-Acetamido-4-methylphenyl)-3-(6-aminopyridin-3-yl)-1-isopropyl-1H-indazole-5-carboxamide]	0.253	–	> 10	–
CC(=O)Nc1cccc(NC(=O)c2ccc3c(c2)c(-c2ccc(N)cc2C)nn3C)c1 [compound 21, N-(3-Acetamidophenyl)-3-(4-amino-2-methylphenyl)-1-methyl-1H-indazole-5-carboxamide]	0.014	–	> 10	high mouse microsomal stability
CNC(=O)c1cc(NC(=O)c2ccc3c(c2)c(-c2ccc(N)cc2C)nn3C)ccc1C [compound 22, 3-(4-Amino-2-methylphenyl)-1-methyl-N-(4-methyl-3-(methylcarbamoyl)phenyl)-1H-indazole-5-carboxamide]	0.018	–	> 10	high mouse microsomal stability
COc1ccc(NC(=O)c2ccc3c(c2)c(-c2ccc(N)cc2C)nn3C)cc1NC(=O)c1ccccc1 [compound 23, 3-(4-Amino-2-methylphenyl)-N-(3-benzamido-4-methoxyphenyl)-1-methyl-1H-indazole-5-carboxamide]	0.035	–	> 10	–
COc1ccc(NC(=O)c2ccc3c(c2)c(-c2ccc(N)cc2C)nn3C)cc1 [compound 24, 3-(4-Amino-2-methylphenyl)-N-(4-methoxyphenyl)-1-methyl-1H-indazole-5-carboxamide]	0.054	–	> 10	–
Cc1cc(N)ccc1-c1nn(C)c2ccc(C(=O)Nc3ccccc3)cc12 [compound 25, 3-(4-Amino-2-methylphenyl)-1-methyl-N-phenyl-1H-indazole-5-carboxamide]	0.09	–	> 10	–
COc1ccc(N(C)C(=O)c2ccc3c(c2)c(-c2ccc(N)cc2C)nn3C)cc1 [compound 26, 3-(4-Amino-2-methylphenyl)-N-(4-methoxyphenyl)-N,1-dimethyl-1H-indazole-5-carboxamide]	> 1	–	> 10	–
COc1ccc(NC(=O)c2ccc3nn(C)c(-c4ccc(N)cc4C)c3c2)cc1 [compound 27, 3-(4-Amino-2-methylphenyl)-N-(4-methoxyphenyl)-2-methyl-2H-indazole-5-carboxamide]	17.2	–	> 10	–
CNC(=O)c1ccc2c(c1)c(-c1ccc(N)cc1C)nn2C [compound 55, 3-(4-Amino-2-methylphenyl)-N,1-dimethyl-1H-indazole-5-carboxamide]	0.988	–	> 10	–
Cc1cc(N)ccc1-c1nn(C)c2ccc(C(=O)Nc3ccc(OCC4CC4)cc3)cc12 [compound 65, 3-(4-Amino-2-methylphenyl)-N-(4-(cyclopropylmethoxy)phenyl)-1-methyl-1H-indazole-5-carboxamide]	0.098	–	> 10	–
CNC(=O)c1ccc2c(c1)c(-c1cc3ccccc3n1C)nn2C [compound 67, N,1-Dimethyl-3-(1-methyl-1H-indol-2-yl)-1H-indazole-5-carboxamide]	0.261	–	> 10	–
COc1ccc(NC(=O)c2ccc3c(c2)c(-c2cc4ccccc4n2C)nn3C)cc1-c1ccccc1 [compound 72, N-(6-Methoxy-[1,1′-biphenyl]-3-yl)-1-methyl-3-(1-methyl-1H-indol-2-yl)-1H-indazole-5-carboxamide]	2.39	–	–	–
COc1ccc(NC(=O)c2ccc3c(c2)c(-c2cc4ccccc4n2C)nn3C)cc1S(N)(=O)=O [compound 73, N-(4-Methoxy-3-sulfamoylphenyl)-1-methyl-3-(1-methyl-1H-indol-2-yl)-1H-indazole-5-carboxamide]	0.111	–	–	–
COc1ccc(NC(=O)c2ccc3c(c2)c(-c2cc4ccccc4n2C)nn3C)cc1NC(C)=O [compound 74, N-(3-Acetamido-4-methoxyphenyl)-1-methyl-3-(1-methyl-1H-indol-2-yl)-1H-indazole-5-carboxamide]	0.032	–	–	–
COc1ccc(NC(=O)c2ccc3c(c2)c(-c2cc4ccccc4n2C)nn3C)c(C(N)=O)c1 [compound 75, N-(2-Carbamoyl-4-methoxyphenyl)-1-methyl-3-(1-methyl-1H-indol-2-yl)-1H-indazole-5-carboxamide]	4.37	–	–	–
Cc1cc(N)ccc1-c1nn(C)c2ccc(-c3cnc(C(F)(F)F)nc3)cc12 [compound 77, 3-Methyl-4-(1-methyl-5-(2-(trifluoromethyl)pyrimidin-5-yl)-1H-indazol-3-yl)aniline]	3.63	–	> 10	–
Cc1cc(N)ccc1-c1nn(C)c2ccc(-c3cccnc3)cc12 [compound 78, 3-Methyl-4-(1-methyl-5-(pyridin-3-yl)-1H-indazol-3-yl)aniline]	> 10	–	2.44	–
Cc1ccc(-c2ccc3c(c2)c(-c2ccc(N)cc2C)nn3C)cn1 [compound 79, 3-Methyl-4-(1-methyl-5-(6-methylpyridin-3-yl)-1H-indazol-3-yl)aniline]	> 10	–	3.21	–
COc1ccc(-c2ccc3c(c2)c(-c2ccc(N)cc2C)nn3C)cn1 [compound 80, 4-(5-(6-Methoxypyridin-3-yl)-1-methyl-1H-indazol-3-yl)-3-methylaniline]	> 10	–	1.02	–
